Experiments:
Conditions in all cases: 72 h
KU-812 [1] = tested on: KU-812
In short: (§1)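 For the IC50, dose–response curves were fitted with a log-logistic model. The data came from fifteen myeloid leukaemia cell lines grown in RPMI 1640 at densities in the linear growth range and incubated in 384-well plates for 72 h at 37 °C under 5% CO2. Doses were five tenfold steps from 1 to 10,000 nM in duplicate, and luminescent ATP viability was normalised to vehicle and to a positive control at 10 µM before four-parameter fitting.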

NOMO-1 [2] = tested on: NOMO-1
In short: as §1

MV4-11 [3] = tested on: MV4-11
In short: as §1

K-562 [4] = tested on: K-562
In short: as §1

Mono-Mac-6 [5] = tested on: Mono-Mac-6
In short: as §1

HL-60 [6] = test: cell viability (% survival relative to DMSO control); higher = less cytotoxic
In short: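 A rescreen of the full library used HL-60 cells in RPMI 1640 with 10% FBS on 384-well plates, run in duplicate at five tenfold concentrations (1–10,000 nM). Each screen included DMSO or 100 nM of one of three metabolic inhibitors and ran 72 h at 37 °C, 5% CO2. CellTiter-Glo viability was scaled between DMSO and 10 μM proteasome-inhibitor wells. Any area under the curve comes from four-parameter log-logistic fits with drc and PharmacoGx.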

KU-812 [7] = test: cell viability (% survival relative to DMSO control, bortezomib = 0%); higher = less cytotoxic
In short: (§2)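 Fifteen myeloid leukaemia cell lines (10 AML, 5 CML) were seeded at a density titrated to the linear growth range into 384-well plates pre-printed with compounds at 1, 10, 100, 1000 or 10000 nM in duplicate. Plates were incubated for 72 h at 37 °C with 5% CO2. Viability was then read by CellTiter-Glo luminescence. Each value is percent survival averaged over the duplicates, with vehicle set to 100% and a 10 µM positive control to 0%.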

ML-2 = test: as above
In short: as §2

NOMO-1 [8] = test: as above
In short: as §2

KG-1 = test: as above
In short: as §2

MOLM-13 = test: as above
In short: as §2

HL-60 [9] = test: as above
In short: as §2

MV4-11 [10] = test: as above
In short: as §2

K-562 [11] = test: as above
In short: as §2

KCL-22 = test: as above
In short: as §2

BV-173 = test: as above
In short: as §2

HEL = test: as above
In short: as §2

THP-1 = test: as above
In short: as §2

Mono-Mac-6 [12] = test: as above
In short: as §2

LAMA-84 = test: as above
In short: as §2

SHI-1 = test: as above
In short: as §2

Cc1[nH]nc(C(F)(F)F)c1Cc1sc2c(c1C(=O)N1C[C@](C)(O)CO1)c(=O)n(C)c(=O)n2C(C)C [AZD3965]
Conditions | IC50 (cell viability) [µM]
K-562 [4] | 0.00627
KU-812 [1] | > 10
MV4-11 [3] | > 10
Mono-Mac-6 [5] | > 10
NOMO-1 [2] | > 10

cell viability [%], HL-60 [6]
Conditions | 0.001 µM | 0.01 µM | 0.1 µM | 1 µM | 10 µM
co-treatment: AZD3965 100 nM | 92.7 | 98.1 | 96 | 92.2 | 102
co-treatment: DMSO vehicle | 102 | 95.8 | 97.9 | 94.6 | 99.6
co-treatment: GSK2194069 100 nM | 98 | 95.7 | 108 | 97.5 | 105
co-treatment: pictilisib 100 nM | 89.3 | 97.7 | 109 | 97.9 | 112

cell viability [%]
Conditions | 1 nM | 10 nM | 100 nM | 1000 nM | 10000 nM
BV-173 | 91.4 | 103 | 4.97 | 0.26 | 0.551
HEL | 84.2 | 108 | 116 | 111 | 109
HL-60 [9] | 79.9 | 95.6 | 111 | 113 | 115
K-562 [11] | 101 | 42 | 33.8 | 20 | 21.9
KCL-22 | 89.7 | 112 | 125 | 102 | 108
KG-1 | 114 | 118 | 124 | 132 | 127
KU-812 [7] | 91.7 | 120 | 112 | 89.8 | 98.9
LAMA-84 | 89.5 | 120 | 113 | 95.1 | 102
ML-2 | 106 | 116 | 114 | 108 | 101
MOLM-13 | 113 | 120 | 120 | 105 | 93.5
MV4-11 [10] | 89 | 106 | 138 | 94.7 | 81.6
Mono-Mac-6 [12] | 108 | 105 | 111 | 84.9 | 98.3
NOMO-1 [8] | 95.3 | 112 | 114 | 101 | 105
SHI-1 | 103 | 101 | 109 | 101 | 96.7
THP-1 | 107 | 104 | 113 | 99.5 | 102
